Assay results reported in PubChem BioAssay AID1259407 (Chemical Carcinogenesis Research Information System (CCRIS), 2018).
Calls of active or inactive are those of the source. How the calls were made is not given here.

Test system: CCRIS mutagenicity, Ames/micronucleus/aberration tests
Experiment: CCRIS mutagenicity studies
Source text: The CCRIS database contains chemical records with carcinogenicity, mutagenicity, tumor promotion, and tumor inhibition test results. It was developed by the National Cancer Institute (NCI). Data are derived from studies cited in primary journals, current awareness tools, NCI reports, and other sources. Test results have been reviewed by experts in carcinogenesis and mutagenesis.
CCRIS provides historical information from the years 1985 - 2011. It is no longer updated.
This is an archive assay for CCRIS mutagenicity studies.

[1] = Test System: AMES SALMONELLA TYPHIMURIUM, Strain/Indicator: TA98, Metabolic Activation: NONE, Method: STANDARD PLATE
[2] = Test System: AMES SALMONELLA TYPHIMURIUM, Strain/Indicator: TA98, Metabolic Activation: RAT, LIVER, S-9, AROCLOR 1254, Method: STANDARD PLATE
[3] = Test System: AMES SALMONELLA TYPHIMURIUM, Strain/Indicator: TA100, Metabolic Activation: NONE, Method: STANDARD PLATE
[4] = Test System: AMES SALMONELLA TYPHIMURIUM, Strain/Indicator: TA100, Metabolic Activation: RAT, LIVER, S-9, AROCLOR 1254, Method: STANDARD PLATE

## O=S1(=O)OC(c2cc(Br)c(O)c(Br)c2)(c2cc(Br)c(O)c(Br)c2)c2ccccc21
[1]
  mutagenic call: inactive; negative
[2]
  mutagenic call: inactive; negative
[3]
  mutagenic call: inactive; negative
[4]
  mutagenic call: inactive; negative
Test System: AMES SALMONELLA TYPHIMURIUM, Strain/Indicator: TA1535, Metabolic Activation: NONE, Method: STANDARD PLATE
  mutagenic call: inactive; negative
Test System: AMES SALMONELLA TYPHIMURIUM, Strain/Indicator: TA1535, Metabolic Activation: RAT, LIVER, S-9, AROCLOR 1254, Method: STANDARD PLATE
  mutagenic call: inactive; negative
Test System: AMES SALMONELLA TYPHIMURIUM, Strain/Indicator: TA1537, Metabolic Activation: NONE, Method: STANDARD PLATE
  mutagenic call: inactive; negative
Test System: AMES SALMONELLA TYPHIMURIUM, Strain/Indicator: TA1537, Metabolic Activation: RAT, LIVER, S-9, AROCLOR 1254, Method: STANDARD PLATE
  mutagenic call: inactive; negative
Test System: AMES SALMONELLA TYPHIMURIUM, Strain/Indicator: TA1538, Metabolic Activation: NONE, Method: STANDARD PLATE
  mutagenic call: inactive; negative
Test System: AMES SALMONELLA TYPHIMURIUM, Strain/Indicator: TA1538, Metabolic Activation: RAT, LIVER, S-9, AROCLOR 1254, Method: STANDARD PLATE
  mutagenic call: inactive; negative
Test System: MOUSE LYMPHOMA, Strain/Indicator: L5178Y (TK+/TK-), Metabolic Activation: NONE, Method: SUSPENSION/PLATE
  mutagenic call: inactive; negative
Test System: MOUSE LYMPHOMA, Strain/Indicator: L5178Y (TK+/TK-), Metabolic Activation: RAT, LIVER, S-9, AROCLOR 1254, Method: SUSPENSION/PLATE
  mutagenic call: inactive; negative

## C=C(C)C1C=C2C(COC(=O)CCCCCCCCCCCCCCCCC)=CC=C2C(C)=CC1 (stereo unspecified)
[1]
  mutagenic call: inactive; negative
[2]
  mutagenic call: inactive; negative
[3]
  mutagenic call: active; positive
[4]
  mutagenic call: active; positive

## Oc1ccc2ccccc2c1N=Nc1ccc(N=Nc2ccccc2)cc1
[1]
  mutagenic call: inactive; negative
[3]
  mutagenic call: inactive; negative

## CC(C)=C[C@@H]1[C@@H](C(=O)OCc2coc(Cc3ccccc3)c2)C1(C)C
[1]
  mutagenic call: inactive; negative
[2]
  mutagenic call: inactive; negative
[3]
  mutagenic call: inactive; negative
[4]
  mutagenic call: inactive; negative
Test System: CHINESE HAMSTER V-79, Strain/Indicator: V-79/6-THIOGUANINE, Metabolic Activation: NONE, Method: STANDARD PLATE
  mutagenic call: inactive; negative
Test System: CHINESE HAMSTER V-79, Strain/Indicator: V-79/6-THIOGUANINE, Metabolic Activation: RAT HEPATOCYTES, Method: STANDARD PLATE
  mutagenic call: inactive; negative
Test System: CHINESE HAMSTER V-79, Strain/Indicator: V-79/OUABAIN, Metabolic Activation: NONE, Method: STANDARD PLATE
  mutagenic call: inactive; negative
Test System: CHINESE HAMSTER V-79, Strain/Indicator: V-79/OUABAIN, Metabolic Activation: RAT HEPATOCYTES, Method: STANDARD PLATE
  mutagenic call: inactive; negative

## CN(C)Cc1ccccc1
Test System: AMES SALMONELLA TYPHIMURIUM, Strain/Indicator: TA98, Metabolic Activation: NONE, Method: PREINCUBATION
  mutagenic call: inactive; negative
Test System: AMES SALMONELLA TYPHIMURIUM, Strain/Indicator: TA98, Metabolic Activation: RAT, LIVER, S-9, PCB, Method: PREINCUBATION
  mutagenic call: inactive; negative
Test System: AMES SALMONELLA TYPHIMURIUM, Strain/Indicator: TA100, Metabolic Activation: NONE, Method: PREINCUBATION
  mutagenic call: inactive; negative
Test System: AMES SALMONELLA TYPHIMURIUM, Strain/Indicator: TA100, Metabolic Activation: RAT, LIVER, S-9, PCB, Method: PREINCUBATION
  mutagenic call: inactive; negative

## O=[N+]([O-])c1ccc2ccc3cc4c(c5ccc1c2c35)C1OC1[C@@H](O)[C@@H]4O (stereo partly specified)
Test System: CHINESE HAMSTER OVARY, Strain/Indicator: CHO-K1-BH4 (HGPRT)/6-THIOGUANINE, Metabolic Activation: NONE
  mutagenic call: active; positive
